Reference: patent US5624923A, “Tricyclic diazepine vasopressin antagonists and oxytocin antagonists” (priority 1995, dated 1997)

Assays:
Vasopressin V2 = Vasopressin V2 Antagonist Activity in Conscious Hydrated Rats; type: in vivo, rat; details: AVP 0.4 μg/kg i.p.
Procedure: Vasopressin V2 Antagonist Activity in Conscious Hydrated Rats
Conscious hydrated rats are treated with compounds under study from 0.1 to 100 mg/kg orally or vehicle. Two to four rats are used for each compound. One hour later, arginine vasopressin (AVP, antidiuretic hormore, ADH) dissolved in peanut oil is administered at 0.4 μg/kg intraperitoneally. Two rats in each test would not receive arginine vasopressin but only the vehicle (peanut oil) to serve as water-loading control. Twenty minutes later each rat is given 30 mL/kg of deionized water orally by gavage and is placed individually in a metabolic cage equipped with a funnel and a graduated glass cylinder to collect urine for four hours. Urine volume is measured and osmolality analyzed by use of a Fiske One-Ten osmometer (Fiske Assoc., Norwood, Mass., USA). Urinary sodium, potassium, and chloride are analyzed by use of ion-specific electrodes in a Beckman E3 (Electrolyte 3) Analyzer.

Vasopressin V1 = Vasopressin V1 Antagonist Activity in Conscious Rats (vasopressin vasopressor response); type: in vivo, rat; details: 10 mg/kg i.v.
Procedure: Vasopressin V1 Antagonist Activity in Conscious Rats
Conscious rats are restrained in a supine position with elastic tape. The area at the base of the tail is locally anesthetized by subcutaneous infiltration with 2% procaine (0.2 ml). Using aseptic technique the ventral caudal tail artery is isolated and a cannula made of PE 10 and 20 (heat-fused) tubing is passed into the lower abdominal aorta. The cannula is secured, heparinized (1000 i.u./cc), sealed and the wound closed with one or two stitches of Dexon 4-0. The caudal vein is also cannulated in the same manner for intravenous drug administration. The duration of the surgery is approximately 5 minutes. Additional local anesthesia (2% procaine or lidocaine) is provided as needed.
The animals are placed in plastic restraining cages in an upright position. The cannula is attached to a Statham P23Db pressure transducer and pulsatile blood pressure is recorded. […] The vasopressin injections are repeated 30,60,90,120,180,240 and 300 min. later. Percentage of antagonism by the compound is calculated using the pre-drug vasopressin vasopressor response as 100%.

oxytocin receptors = target: T1, oxytocin receptors (Rattus norvegicus, UniProt P70536); test: Oxytocin Receptor Binding; details: for IC50: 1.0 nM [3H]oxytocin
T1 construct: The uteri are dissected out, cleaned of fat and connective tissues; from tissue; host or cells: uterus of DES-treated female Sprague-Dawley rats
T1 sequence (P70536 1-388): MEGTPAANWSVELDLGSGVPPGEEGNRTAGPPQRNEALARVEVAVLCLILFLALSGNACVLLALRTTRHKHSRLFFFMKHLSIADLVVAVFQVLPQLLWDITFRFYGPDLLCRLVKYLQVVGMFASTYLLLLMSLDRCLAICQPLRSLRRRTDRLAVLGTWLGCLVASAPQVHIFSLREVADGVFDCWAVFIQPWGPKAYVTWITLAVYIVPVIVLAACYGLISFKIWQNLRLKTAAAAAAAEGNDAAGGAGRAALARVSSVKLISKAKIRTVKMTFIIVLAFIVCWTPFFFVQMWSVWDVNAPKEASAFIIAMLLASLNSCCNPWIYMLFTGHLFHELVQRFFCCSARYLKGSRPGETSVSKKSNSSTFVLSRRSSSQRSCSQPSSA
Procedure: Oxytocin Receptor Binding
Female Sprague-Dawley rats weighing approximately 200-250 g are injected intramuscularly (i.m.) with 0.3 mg/kg of body weight of diethylstilbestrol (DES). The rats are sacrificed 18 hours later under pentobarbital anesthesia. The uteri are dissected out, cleaned of fat and connective tissues and rinsed in 50 ml of normal saline. The tissue pooled from six rats is homogenized in 50 ml of […] Tris.HCl, containing 0.5 mM dithiothreitol and 1.0 mM EDTA, adjusted to pH 7.4, using a polytron at setting 6 with three passes of 10 sec each. The homogenate is passed through two (2) layers of cheesecloth and the filtrate centrifuged at 1000× g for 10 min. The clear supernatant is removed and recentrifuged at 165,000× g for 30 min. The resulting pellet containing the oxytocin receptors is resuspended in 50.0 mM Tris.HCl containing 5.0 mM MgCl2 at pH 7.4, to give a protein concentration of 2.5 mg/ml of tissue suspension. This preparation is used in subsequent binding assays with [^3 H]Oxytocin.
Binding of 3,5-[^3 H]Oxytocin ([^3 H]OT) to its receptors is done in microtiter plates using [^3 H]OT, at various concentrations, in an assay buffer of 50.0 mM Tris.HCl, pH 7.4 and containing 5.0 mM MgCl2, and a mixture of protease inhibitors: BSA, 0.1 mg; aprotinin, 1.0 mg; 1,10-phenanthroline, 2.0 mg; […], 10.0 mg; and PMSF, 0.3 mg per 100 ml of buffer solution. Non-specific binding is determined in the presence of 1.0 uM unlabeled OT. The binding reaction is terminated after 60 min , at 22° C. by rapid filtration through glass fiber filters using a Brandel® cell harvester (Biomedical Research and Development Laboratories, Inc., Gaithersburg, Md.). Competition experiments are conducted at equilibrium using 1.0 nM [^3 H]OT and varying the concentration of the displacing agents. The concentrations of agent displacing 50% of [^3 H]OT at its sites (IC50) are calculated by a computer assisted LUNDON-2 program (LUNDON SOFTWARE INC., Ohio, USA).

Compound	IC50 (oxytocin receptors) [nM]	inhibition at 10 µM (oxytocin receptors; dose 10 μM, [3H]oxytocin) [%]	further results
Cc1ccc(F)cc1C(=O)Nc1ccc(C(=O)N2Cc3cccn3Cc3ccccc32)cc1 [Example 465, N-[4-(5H-Pyrrolo[2,1-c][1,4]benzodiazepin-10(11H)-ylcarbonyl)phenyl]-5-fluoro-2-methylbenzamide]	33	93	Osmolality (Vasopressin V2; 10 mg/kg orally): 361 mOsm/kg; Urine Volume (Vasopressin V2; 10 mg/kg orally): 21.8 ml/4 hrs; Max. % Inhibition (Vasopressin V1): 85%; Time (of max. % inhibition) (Vasopressin V1): 90 min
N-[4-(4H-Pyrazolo[5,1-c][1,4]benzo-diazepin-5(10H)-ylcarbonyl)phenyl]-2-methoxybenzeneacetamide [Example 215]	570	–	Osmolality (Vasopressin V2; 30 mg/kg orally): 1520 mOsm/kg; Urine Volume (Vasopressin V2; 30 mg/kg orally): 0.7 ml/4 hrs; % Inhibition at 10 μM (oxytocin receptors; dose 10 μM, [3H]oxytocin): 74%
Cc1ccccc1C(=O)Nc1ccc(C(=O)O)c(Cl)c1 [Example 430, 4-[(2-methylbenzoyl)amino]-2-chloro-benzoic acid]	–	16	–
COc1cc(C(=O)N2Cc3cccn3Cc3ccccc32)ccc1[N+](=O)[O-] [Example 455, 10,11-Dihydro-10-(3-methoxy-4-nitrobenzoyl)-5H-pyrrolo[2,1-c][1,4]benzodiazepine]	2900	75	–
Cc1cc(C(=O)O)cc(C)c1NC(=O)c1ccc(Cl)cc1Cl [Example 432, 4-[(2,4-dichlorobenzoyl)amino]-3,5-dimethylbenzoic acid]	–	19	–
Cc1ccc(F)cc1C(=O)Nc1ccc(C(=O)O)c(Cl)c1 [Example 419, 4-[(5-fluoro-2-methylbenzoyl)amino]-2-chlorobenzoic acid]	–	28	–
Nc1ccc(C(=O)N2Cc3ccc(C(=O)C(F)(F)F)n3Cc3ccccc32)cc1 [Example 462, 10,11-dihydro-10-(4-aminobenzoyl)[3-(trifluoroacetyl)]-5H-pyrrolo[2,1-c]-[1,4]benzodiazepine]	–	14	–
CCOC(=O)c1ccc2n1Cc1ccccc1N(C(=O)c1ccc(N)c(C)c1)C2 [Example 463, ethyl 10,11-dihydro-10-(4-amino-3-methylbenzoyl)-5H-pyrrolo[2,1-c]-[1,4]benzodiazepine-3-carboxylate]	8500	55	–
O=C(c1ccc([N+](=O)[O-])cc1Cl)N1Cc2ccc(C(=O)C(Cl)(Cl)Cl)n2Cc2ccccc21 [Example 450, 10,11-dihydro-10-(2-chloro-4-nitro-benzoyl)-[3-(trichloroacetyl)]-5H-pyrrolo[2,1-c][1,4]benzodiazepine]	–	22	–
CCOC(=O)c1ccc2n1Cc1ccccc1N(C(=O)c1ccc([N+](=O)[O-])c(C)c1)C2 [Example 444, ethyl 10,11-dihydro-10-(3-methyl-4-nitrobenzoyl)-5H-pyrrolo[2,1-c][1,4]-benzodiazepine-3-carboxylate]	–	21	–
Cc1ccc(F)cc1C(=O)Nc1ccc(C(=O)O)cc1Cl [Example 436, 4-[(5-fluoro-2-methylbenzoyl)amino]-3-chlorobenzoic acid]	–	32	–
Cc1ccccc1C(=O)Nc1ccc(C(=O)O)cc1Cl [Example 433, 4-[(2-methylbenzoyl)amino]-3-chloro-benzoic acid]	–	12	–
COc1cc(C(=O)N2Cc3cccn3Cc3ccccc32)ccc1N [Example 460, 10,11-Dihydro-10-(4-amino-3-methoxybenzoyl)-5H-pyrrolo[2,1-c][1,4]benzodiazepine]	3100	77	–
Cc1c(F)cccc1C(=O)Nc1ccc(C(=O)O)c(Cl)c1 [Example 420]	–	16	–
O=C(Nc1ccc(C(=O)O)c(Cl)c1)c1cccc(F)c1 [Example 441, 4-[[3-fluorobenzoyl]amino]-2-chloro-benzoic acid]	–	–	inhibition at 1 µM (oxytocin receptors; dose 1 μM, [3H]oxytocin): 22%
CCOC(=O)c1ccc2n1Cc1ccccc1N(C(=O)c1ccc(NC(=O)c3ccc(Cl)cc3Cl)cc1)C2 [Example 596, Ethyl 10-[4-[(2,4-dichlorobenzoyl)amino]benzoyl]-10,11-dihydro-5H-pyrrolo[2,1-c][1,4]benzodiazepine-3-carboxylate]	4000	86	Osmolality (Vasopressin V2; 10 mg/kg orally): 1347 mOsm/kg; Urine Volume (Vasopressin V2; 10 mg/kg orally): 2.8 ml/4 hrs
